Measurements taken from PubChem BioAssay AID248 (DTP/NCI, 2004).
Values joined by “and” are separate entries in the source; they are usually repeats but may differ in a detail not shown here. Equal values may be shown once. Toxic doses and inconclusive results are not listed. No stated cut-off is given here; in the data, active means T/C of 150% or more; inactive means T/C below 125%.

Test system: L1210 leukemia ip in BDF1 mice, survival T/C
Assay: NCI In Vivo Anticancer Drug Screen. Data for tumor model L1210 Leukemia (intraperitoneal) in B6D2F1 (BDF1) mice
Conditions: endpoint: mean survival time, higher = longer survival
Outline: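 Mice bearing the transplanted tumor received compound or vehicle. Survival of the treated group was divided by that of the vehicle-treated control group to give the ratio.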

[1] = dose: 100.0 mg/kg/injection, schedule: Q04DX002 (ip), vehicle: gum acacia
[2] = dose: 200.0 mg/kg/injection, schedule: Q04DX002 (ip), vehicle: gum acacia
[3] = dose: 400.0 mg/kg/injection, schedule: Q04DX002 (ip), vehicle: gum acacia
[4] = dose: 100.0 mg/kg/injection, schedule: Q04DX002 (ip), vehicle: Klucel (hydroxypropylcellulose) (HPC)
[5] = dose: 200.0 mg/kg/injection, schedule: Q04DX002 (ip), vehicle: Klucel (hydroxypropylcellulose) (HPC)
[6] = dose: 400.0 mg/kg/injection, schedule: Q04DX002 (ip), vehicle: Klucel (hydroxypropylcellulose) (HPC)
[7] = dose: 200.0 mg/kg/injection, schedule: Q01DX009 (ip), vehicle: saline
[8] = dose: 20.0 mg/kg/injection, schedule: Q01DX001 (ip), vehicle: saline
[9] = dose: 40.0 mg/kg/injection, schedule: Q01DX001 (ip), vehicle: saline
[10] = dose: 200.0 mg/kg/injection, schedule: Q01DX001 (ip), vehicle: saline
[11] = dose: 400.0 mg/kg/injection, schedule: Q01DX001 (ip), vehicle: saline
[12] = dose: 100.0 mg/kg/injection, schedule: Q04DX003 (ip), vehicle: saline with Tween-80
[13] = dose: 200.0 mg/kg/injection, schedule: Q04DX003 (ip), vehicle: saline with Tween-80
[14] = dose: 400.0 mg/kg/injection, schedule: Q04DX003 (ip), vehicle: saline with Tween-80
[15] = dose: 200.0 mg/kg/injection, schedule: Q01DX001 (ip), vehicle: Klucel (hydroxypropylcellulose) (HPC)
[16] = dose: 100.0 mg/kg/injection, schedule: Q01DX001 (ip), vehicle: saline
[17] = dose: 100.0 mg/kg/injection, schedule: Q01DX009 (ip), vehicle: Klucel (hydroxypropylcellulose) (HPC)
[18] = dose: 100.0 mg/kg/injection, schedule: Q04DX003 (ip), vehicle: Klucel (hydroxypropylcellulose) (HPC)

Measured: T/C

CCOC(=O)COc1cc(N)c(Cl)cc1Cl
inactive: [1] 95 % of control | [2] 95 % of control | [3] 92 % of control

CN(C(=O)/C=C\c1ccccc1)c1ccccc1
inactive: [4] 104 % of control | [5] 104 % of control | [6] 104 % of control

NNC(=O)C1CC2C=CC1C2 (configuration not stated)
inactive: dose: 100.0 mg/kg/injection, schedule: Q01DX009 (ip), vehicle: saline 100 % of control | [7] 103 % of control

CCC1CCCCN1 (configuration not stated)
inactive: dose: 10.0 mg/kg/injection, schedule: Q01DX001 (ip), vehicle: saline 105 % of control | dose: 10.0 mg/kg/injection, schedule: Q01DX009 (ip), vehicle: saline 108 % of control and 111 % of control | dose: 10.0 mg/kg/injection, schedule: Q04DX002 (ip), vehicle: saline 95 % of control and 106 % of control | dose: 10.0 mg/kg/injection, schedule: Q04DX003 (ip), vehicle: saline 103 % of control | [8] 120 % of control | dose: 20.0 mg/kg/injection, schedule: Q01DX009 (ip), vehicle: saline 104 % of control | dose: 20.0 mg/kg/injection, schedule: Q04DX002 (ip), vehicle: saline 103 % of control | dose: 20.0 mg/kg/injection, schedule: Q04DX003 (ip), vehicle: saline 101 % of control | [9] 103 % of control | dose: 40.0 mg/kg/injection, schedule: Q01DX009 (ip), vehicle: saline 104 % of control | dose: 40.0 mg/kg/injection, schedule: Q04DX002 (ip), vehicle: saline 94 % of control and 98 % of control | dose: 40.0 mg/kg/injection, schedule: Q04DX003 (ip), vehicle: saline 97 % of control

O=NN(CCCl)C(=O)Nc1cccc2cccnc12
inactive: dose: 0.62 mg/kg/injection, schedule: Q01DX001 (ip), vehicle: carboxymethylcellulose (CMC) 112 % of control | dose: 1.25 mg/kg/injection, schedule: Q01DX001 (ip), vehicle: carboxymethylcellulose (CMC) 117 % of control | dose: 2.5 mg/kg/injection, schedule: Q01DX001 (ip), vehicle: carboxymethylcellulose (CMC) 117 % of control

O=C(N/N=C/c1cccc([N+](=O)[O-])c1)c1cccc2ccccc12
inactive: [10] 92 % of control | [11] 95 % of control

COc1ccc(CC(=O)NCCN(CCN(CCO)C(=O)Cc2ccc(OC)cc2)C(=O)Cc2ccc(OC)cc2)cc1
inactive: dose: 100.0 mg/kg/injection, schedule: Q01DX009 (ip), vehicle: saline with Tween-80 95 % of control | [12] 100 % of control | dose: 200.0 mg/kg/injection, schedule: Q01DX009 (ip), vehicle: saline with Tween-80 90 % of control | [13] 102 % of control | dose: 400.0 mg/kg/injection, schedule: Q01DX009 (ip), vehicle: saline with Tween-80 91 % of control | [14] 94 % of control

Cc1ccc(-n2c(=O)c(N=Nc3ccccc3C)c(O)n(-c3ccccc3Cl)c2=S)cc1
inactive: dose: 50.0 mg/kg/injection, schedule: Q01DX001 (ip), vehicle: Klucel (hydroxypropylcellulose) (HPC) 104 % of control | dose: 100.0 mg/kg/injection, schedule: Q01DX001 (ip), vehicle: Klucel (hydroxypropylcellulose) (HPC) 94 % of control | [15] 98 % of control

O=C(COc1ccc(Cl)cc1Cl)Nc1ccc(Br)cc1
inactive: [1] 103 % of control | [2] 92 % of control | [3] 89 % of control

C[n+]1cccc(NC(=O)c2ccc(NC(=O)c3ccc(C(=O)Nc4ccc(NC(=N)N)cc4)cc3)cc2)c1
active: dose: 1.3 mg/kg/injection, schedule: Q01DX009 (ip), vehicle: saline 155 % of control | dose: 2.0 mg/kg/injection, schedule: Q01DX009 (ip), vehicle: saline 221 % of control | dose: 3.0 mg/kg/injection, schedule: Q01DX009 (ip), vehicle: saline 294 % of control | dose: 5.0 mg/kg/injection, schedule: Q01DX009 (ip), vehicle: saline 193 % of control | [8] 178 % of control | [9] 201 % of control and 249 % of control
inactive: dose: 0.3 mg/kg/injection, schedule: Q01DX009 (ip), vehicle: saline 118 % of control | dose: 0.6 mg/kg/injection, schedule: Q01DX009 (ip), vehicle: saline 123 % of control | dose: 5.0 mg/kg/injection, schedule: Q01DX001 (ip), vehicle: saline 119 % of control and 124 % of control | dose: 15.0 mg/kg/injection, schedule: Q01DX009 (ip), vehicle: saline 123 % of control

CCN=C(c1ccc(NC(=O)c2ccc(C(=O)Nc3ccc(C(=NCC)N(CC)C(=O)Nc4ccc(OCC)cc4)cc3)cc2)cc1)N(CC)C(=O)Nc1ccc(OCC)cc1
active: dose: 7.5 mg/kg/injection, schedule: Q01DX015 (ip), vehicle: methylcellulose (MC) 150 % of control
inactive: dose: 3.75 mg/kg/injection, schedule: Q01DX015 (ip), vehicle: methylcellulose (MC) 122 % of control

CC1(C)N=CN=C(N)N1c1ccc(CCC(=O)Nc2ccc(S(=O)(=O)F)cc2)c(Cl)c1
inactive: [12] 114 % of control | [13] 112 % of control | [14] 109 % of control

CC1(C)/C(=C\C(=O)O)C2C=CC1C2 (configuration not stated)
inactive: [16] 94 % of control | dose: 100.0 mg/kg/injection, schedule: Q01DX009 (ip), vehicle: acetone 86 % of control | dose: 100.0 mg/kg/injection, schedule: Q04DX003 (ip), vehicle: saline 114 % of control | [10] 101 % of control | dose: 200.0 mg/kg/injection, schedule: Q01DX009 (ip), vehicle: acetone 91 % of control | dose: 200.0 mg/kg/injection, schedule: Q04DX003 (ip), vehicle: saline 106 % of control | [11] 100 % of control | dose: 400.0 mg/kg/injection, schedule: Q04DX003 (ip), vehicle: saline 102 % of control

NC1CCC(OC(=O)C23CC4CC(CC(C4)C2)C3)CC1 (configuration not stated)
inactive: dose: 100.0 mg/kg/injection, schedule: Q01DX001 (ip), vehicle: saline with Tween-80 94 % of control

Cc1ccccc1N=C(N)N=C(N)N
inactive: dose: 25.0 mg/kg/injection, schedule: Q01DX009 (ip), vehicle: Klucel (hydroxypropylcellulose) (HPC) 93 % of control | dose: 25.0 mg/kg/injection, schedule: Q04DX003 (ip), vehicle: Klucel (hydroxypropylcellulose) (HPC) 95 % of control | dose: 50.0 mg/kg/injection, schedule: Q01DX009 (ip), vehicle: Klucel (hydroxypropylcellulose) (HPC) 90 % of control | dose: 50.0 mg/kg/injection, schedule: Q04DX003 (ip), vehicle: Klucel (hydroxypropylcellulose) (HPC) 103 % of control | [17] 98 % of control and 92 % of control | [18] 100 % of control and 90 % of control

Cc1ccccc1N1C(=O)c2ccccc2C1=O
inactive: [17] 95 % of control | [4] 96 % of control | dose: 200.0 mg/kg/injection, schedule: Q01DX009 (ip), vehicle: Klucel (hydroxypropylcellulose) (HPC) 98 % of control | [5] 86 % of control | dose: 400.0 mg/kg/injection, schedule: Q01DX009 (ip), vehicle: Klucel (hydroxypropylcellulose) (HPC) 98 % of control | [6] 93 % of control

O=C(C[n+]1cccc2ccccc21)c1ccc(-c2ccccc2)cc1
inactive: [15] 96 % of control

Cc1ccc(O)c(C)n1
inactive: dose: 66.0 mg/kg/injection, schedule: Q01DX009 (ip), vehicle: saline 98 % of control | dose: 150.0 mg/kg/injection, schedule: Q01DX009 (ip), vehicle: saline 97 % of control | [7] 93 % of control | dose: 400.0 mg/kg/injection, schedule: Q01DX009 (ip), vehicle: saline 102 % of control

COc1ccc(/C=C(\C(=O)c2ccc(O)cc2)c2ccccc2)cc1OC
inactive: dose: 100.0 mg/kg/injection, schedule: Q01DX001 (ip), vehicle: carboxymethylcellulose (CMC) 94 % of control | dose: 200.0 mg/kg/injection, schedule: Q01DX001 (ip), vehicle: carboxymethylcellulose (CMC) 89 % of control | dose: 400.0 mg/kg/injection, schedule: Q01DX001 (ip), vehicle: carboxymethylcellulose (CMC) 89 % of control

[N-]=[N+]=NCC1OC(n2cnc3c(N)ncnc32)C(O)C1O (configuration not stated)
inactive: [16] 95 % of control | [10] 103 % of control | [11] 103 % of control

CC(C)(C)C(=O)CSC/C(=N/O)C(C)(C)C
inactive: [18] 112 % of control | dose: 200.0 mg/kg/injection, schedule: Q04DX003 (ip), vehicle: Klucel (hydroxypropylcellulose) (HPC) 103 % of control | dose: 400.0 mg/kg/injection, schedule: Q04DX003 (ip), vehicle: Klucel (hydroxypropylcellulose) (HPC) 99 % of control
